Source: PubChem BioAssay AID2060500 (Molecular Pharmacology Branch, DTP, NCI, 2025)
Values joined by “and” are separate entries in the source; they are usually repeats but may differ in a detail not shown here. Equal entries are not always repeated.

System: 596521-263-R-J1-PDC complex spheroids, viability % of control
Assay: Anticancer human tumor 596521-263-R-J1-PDC patient-derived soft tissue sarcoma cell line growth inhibition [GQUAD]
Conditions: for viability, T/C: stronger effect = lower value
Text: DNA G-quadruplex Stabilizer Agents in Combinations in Complex Spheroids
A high-throughput screen of multi-cell type tumor spheroids was designed to identify active combinations of DNA G-quadruplex stabilizer agents and targeted small molecules. Complex spheroids include a stromal component modeled by human endothelial cells (HUVEC) and fibroblasts modeled by human mesenchymal stem cells (MSCs). The concentration ranges selected for each drug and investigational agent were based upon clinically achievable concentrations if the clinical Cmax of the agent was known.
Compounds. The drugs and investigational agents: pidnarulex (CX-5461; NSC782164), APTO-253 (NSC789042), BRACO-19 (NSC847499), peposertib (NSC802822), ceralasertib (NSC780249), elimusertib (NSC800525), camonsertib (NSC841442), AZD-1390 (NSC803789), olaparib (NSC753686), talazoparib (NSC767125), ART-558 (NSC835418), sotorasib (NSC818433), MRTX-1133 (NSC836407), SN-38 (NSC673596), topotecan (NSC609699), etoposide (NSC141540), doxorubicin (NSC123127), gemcitabine (NSC613327), 5-fluorouracil (NSC19893), paclitaxel (NSC125973), vemurafenib (NSC761431), panobinostat (NSC761190), R-306465 (JNJ-16241199; NSC773264), adavosertib (NSC754352), TP-3654 (NSC805149), carboplatin (NSC241240), KSQ-4279 (NSC840948), and staurosporine (NSC755774) were obtained from the National Cancer Institute (NCI) Developmental Therapeutics Program Chemical Repository (34). The FDA-approved anticancer drug set is available from the NCI Developmental Therapeutics Program. […] The stock solutions were prepared in dimethyl sulfoxide (DMSO, Sigma-Aldrich, St. Louis, MO, cat. D2650) at 800-fold the tested concentration and stored at -70 degrees C prior to their use. All drugs and investigational agents were tested over a range starting from a high concentration at or near the clinical Cmax and decreasing in half-log increments. If the clinical Cmax for an agent had not been determined, the highest concentration tested was 10 microM.
2.3 Cell Culture. All cells were maintained in an incubator at 37 degrees C and 5% CO2 with 95% humidity. The PDC lines were cultured according to standard operating procedures established by the NCI PDMR. All PDCs were thawed and cultured in Matrigel-coated flasks prepared with a working solution of 1X Ham's F-12 nutrient mix, without supplementation (Invitrogen, cat. 11765054), 100 U/mL penicillin-streptomycin (Invitrogen, cat. 15140122), and 2.5% Matrigel (Corning Inc., cat. 354248) for the first three passages. The 857933-349-R-J2-PDC line was cultured in 6C/Colon 1B media, which includes advanced DMEM/F-12 (Thermo Fisher Scientific, cat. 12634028), 10 mM HEPES (Thermo Fisher Scientific, cat. 15630080), 1X GlutaMAX supplement (Thermo Fisher Scientific, cat. 35050061), 0.1 mg/mL primocin (InvivoGen, cat. ant-pm-2), 10% defined fetal bovine serum, heat inactivated (HyClone Laboratories Inc., cat. SH30070.03HI), 50% L-WRN conditioned media (ATCC, cat. CRL-3276), 1.25 mM N-Acetyl-L-cysteine (Sigma-Aldrich, cat. A9165), 10 mM nicotinamide (Sigma-Aldrich, cat. N0636), 1X B-27 supplement (Thermo Fisher Scientific, cat. 17504044), 1X N-2 supplement (Thermo Fisher Scientific, cat. 17502048), 10 microM Y-27632 dihydrochloride (Tocris Bioscience, cat. 1254), and 50 ng/mL human EGF recombinant protein (Thermo Fisher Scientific, cat. PHG0311). The 485176-168-R4-J1-PDC line was cultured in Panc media, which includes all 6C/Colon 1B media components plus 100 ng/mL human FGF-10 (Thermo Fisher Scientific, cat. 100-26), 500 nM SB-431542 (Selleckchem, cat. S1067), and gastrin (Tocris, cat. 3006).
[…]
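Further: spheroids exposed to drugs for 7 days before viability reading.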

Q: COc1cccc2c1C(=O)c1c(O)c3c(c(O)c1C2=O)CC(O)(C(=O)CO)CC3OC1CC(N)C(O)C(C)O1 (configuration not stated) + CN(C)c1ccc(Nc2c3ccc(NC(=O)CCN4CCCC4)cc3nc3cc(NC(=O)CCN4CCCC4)ccc23)cc1 was tested. Which IC50 (curve of first compound, second compound 0.0316 µM) did it give?
A: 687 nM

Q: What about the IC50 (curve of first compound, second compound 0.1 µM) of the same compound?
A: 910 nM

Q: What about the IC50 (curve of first compound, second compound 0.316 µM) of the same compound?
A: 722 nM

Q: And the IC50 (curve of first compound, second compound 1 µM)?
A: 787 nM

Q: What about the IC50 (curve of first compound, second compound 3.16 µM) of the same compound?
A: 1010 nM

Q: What about the IC50 (curve of first compound, second compound 10 µM) of the same compound?
A: 408 nM

Q: And the viability, T/C (second compound 0.0316 µM, first compound 0.0316 µM)?
A: 96.9%

Q: What about the viability, T/C (second compound 0.0316 µM, first compound 0.1 µM) of the same compound?
A: 75.1%

Q: What about the viability, T/C (second compound 0.0316 µM, first compound 0.316 µM) of the same compound?
A: 55.8%

Q: And the viability, T/C (second compound 0.0316 µM, first compound 1 µM)?
A: 54.9%

Q: And the viability, T/C (second compound 0.0316 µM, first compound 3.16 µM)?
A: 29.7%

Q: What about the viability, T/C (second compound 0.0316 µM, first compound 10 µM) of the same compound?
A: 3.98%

Q: And the viability, T/C (second compound 0.1 µM, first compound 0.0316 µM)?
A: 94.2%

Q: And the viability, T/C (second compound 0.1 µM, first compound 0.1 µM)?
A: 73.8%

Q: And the viability, T/C (second compound 0.1 µM, first compound 0.316 µM)?
A: 70.3%

Q: What about the viability, T/C (second compound 0.1 µM, first compound 1 µM) of the same compound?
A: 47.7%

Q: And the viability, T/C (second compound 0.1 µM, first compound 3.16 µM)?
A: 29.4%

Q: What about the viability, T/C (second compound 0.1 µM, first compound 10 µM) of the same compound?
A: 6.1%

Q: And the viability, T/C (second compound 0.316 µM, first compound 0.0316 µM)?
A: 108%

Q: What about the viability, T/C (second compound 0.316 µM, first compound 0.1 µM) of the same compound?
A: 80.6%

Q: What about the viability, T/C (second compound 0.316 µM, first compound 0.316 µM) of the same compound?
A: 53.1%

Q: What about the viability, T/C (second compound 0.316 µM, first compound 1 µM) of the same compound?
A: 51.5%

Q: And the viability, T/C (second compound 0.316 µM, first compound 3.16 µM)?
A: 29.6%

Q: What about the viability, T/C (second compound 0.316 µM, first compound 10 µM) of the same compound?
A: 5.16%

Q: What about the viability, T/C (second compound 1 µM, first compound 0.0316 µM) of the same compound?
A: 104%

Q: What about the viability, T/C (second compound 1 µM, first compound 0.1 µM) of the same compound?
A: 76.7%

Q: What about the viability, T/C (second compound 1 µM, first compound 0.316 µM) of the same compound?
A: 58.5%

Q: And the viability, T/C (second compound 1 µM, first compound 1 µM)?
A: 55.8%

Q: And the viability, T/C (second compound 1 µM, first compound 3.16 µM)?
A: 31%

Q: What about the viability, T/C (second compound 1 µM, first compound 10 µM) of the same compound?
A: 5.6%

Q: And the viability, T/C (second compound 3.16 µM, first compound 0.0316 µM)?
A: 89.5%

Q: What about the viability, T/C (second compound 3.16 µM, first compound 0.1 µM) of the same compound?
A: 84.5%

Q: What about the viability, T/C (second compound 3.16 µM, first compound 0.316 µM) of the same compound?
A: 55.6%

Q: And the viability, T/C (second compound 3.16 µM, first compound 1 µM)?
A: 56.6%

Q: What about the viability, T/C (second compound 3.16 µM, first compound 3.16 µM) of the same compound?
A: 30.3%

Q: And the viability, T/C (second compound 3.16 µM, first compound 10 µM)?
A: 6.32%

Q: What about the viability, T/C (second compound 10 µM, first compound 0.0316 µM) of the same compound?
A: 67.3%

Q: What about the viability, T/C (second compound 10 µM, first compound 0.1 µM) of the same compound?
A: 59.1%

Q: And the viability, T/C (second compound 10 µM, first compound 0.316 µM)?
A: 47.7%

Q: And the viability, T/C (second compound 10 µM, first compound 1 µM)?
A: 42.9%

Q: What about the viability, T/C (second compound 10 µM, first compound 3.16 µM) of the same compound?
A: 30.8%

Q: And the viability, T/C (second compound 10 µM, first compound 10 µM)?
A: 5.21%

Q: Which results are given for C#Cc1c(F)ccc2cc(O)cc(-c3ncc4c(N5CC6CCC(C5)N6)nc(OCC56CCCN5CC(F)C6)nc4c3F)c12 (configuration not stated)?
A: viability, T/C (compound 0.0316 µM): 87.5% and 92.6% and 98.3%; viability, T/C (compound 0.1 µM): 94.6% and 94.2% and 103%; viability, T/C (compound 0.316 µM): 92.4% and 101% and 107%; viability, T/C (compound 1 µM): 89.7% and 67.3% and 92.5%; viability, T/C (compound 3.16 µM): 124% and 22.8% and 104%; viability, T/C (compound 10 µM): 75% and 22.5% and 78.4%; IC50 (curve of compound): > 10000 nM and 1560 nM

Q: CC1COCCN1c1cc(C2(S(C)(=N)=O)CC2)nc(-c2ccnc3[nH]ccc23)n1 (configuration not stated) was tested. Which viability, T/C (compound 0.0316 µM) did it give?
A: 95.1% and 98% and 118%

Q: And the viability, T/C (compound 0.1 µM)?
A: 110% and 95.7% and 101%

Q: And the viability, T/C (compound 0.316 µM)?
A: 84.8% and 84.3% and 101%

Q: What about the viability, T/C (compound 1 µM) of the same compound?
A: 83.6% and 72.9% and 77.3%

Q: What about the viability, T/C (compound 3.16 µM) of the same compound?
A: 73.7% and 63.8% and 58%

Q: What about the viability, T/C (compound 10 µM) of the same compound?
A: 52.1% and 46.3% and 51.5%

Q: What about the IC50 (curve of compound) of the same compound?
A: > 10000 nM and 7960 nM

Q: Which viability, T/C (compound 0.0316 µM) does the source give for COc1ncnc(C2CC2)c1-c1ncc2cnn(Cc3ccc(-c4nc(C(F)(F)F)cn4C(C)C)cc3)c2n1 here?
A: 98.6% and 108% and 92.8%

Q: And the viability, T/C (compound 0.1 µM)?
A: 105% and 94.8% and 99.3%

Q: What about the viability, T/C (compound 0.316 µM) of the same compound?
A: 97.8% and 85.6% and 98.5%

Q: What about the viability, T/C (compound 1 µM) of the same compound?
A: 100% and 65.5% and 81.5%

Q: What about the viability, T/C (compound 3.16 µM) of the same compound?
A: 99.2% and 28.8% and 94.3%

Q: What about the IC50 (curve of compound) of the same compound?
A: > 10000 nM and 1580 nM
